{
  "source": "patent US4402962A",
  "about": "“Analgesic mixture of nalbuphine and 4,5-bis(4-methoxyphenyl)-2-(trifluoromethylsulfonyl)-1H-imidazole” (E. I. Du Pont de Nemours and Company, priority 1982, dated 1983)",
  "assay": "phenyl-p-benzoquinone induced writhing test in mice (mouse antiphenylquinone writhing test), oral",
  "format": "in vivo, mouse (male CF1)",
  "settings": "for % MICE BLOCKED: oral",
  "from_the_text": "The phenyl-p-benzoquinone induced writhing test in mice [H. Blumberg et al., Proc. Soc. […] The method simply consists of reading the % ED50 DOSE for each dose ratio on the best fit regression analysis curve from the mouse isobologram, multiplying each component by its effective species dose, and then forming the ratio of the amount of nalbuphine to 4,5-bis(4-methoxyphenyl)-2-(trifluoromethylsulfonyl)-1 H-imidazole. […] [E. W. Pelikan, The Pharmacologist, 1, 73 (1959). ]\nMale CF1 mice obtained from Charles River Breeding Laboratories, fasted for 16-22 hours and weighing 18-22 g at the time of testing are used throughout. All mice are dosed sequentially by the oral route with suspensions of 4,5-bis(4-methoxyphenyl)-2-(trifluoromethylsulfonyl)-1H-imidazole and/or of nalbuphine hydrochloride. A dosing volume of 10 ml/kg is used for each sequential solution or suspension. […] All doses are coded and the test is performed under a code not known to the observer.\nA stock suspension of 4,5-bis(4-methoxyphenyl)-2-trifluoromethylsulfonyl)-1H-imidazole is prepared by mixing 8.0 mg 4,5-bis(4-methoxyphenyl)-2-(trifluoromethylsulfonyl)-1H-imidazole with 80 ml of an aqueous vehicle containing 2% by volume of Tween 80®, a pharmacological dispersant manufactured by Fisher Scientific Company and containing 100% polysorbate 80, and 1% by weight of Methocel® MC powder, a suspending agent manufactured by DOW Chemical Company and containing 100% methylcellulose, in distilled water. The mixture is sonicated at 150 watts for 1-2 minutes with an ultrasound system, then shaken for two hours at 280 oscillations/minute with 15-20 gm of glass beads. The resultant suspension contains 0.1 mg/ml of 4,5-bis(4-methoxyphenyl)-2-(trifluoromethylsulfonyl)-1H-imidazole; all dosing suspensions are prepared by dilution of the stock suspension with the Methocel®/Tween 80® vehicle; the vehicle control is Methocel®/Tween 80®. All suspensions are prepared fresh daily.\nStock solutions of nalbuphine HCl are prepared by dissolving dry nalbuphine hydrochloride powder with distilled water. All dosing solutions are prepared by dilution of the stock solution with distilled water; the vehicle control is distilled water.\nAs indicated above, the standard procedure based upon the prevention of phenyl-p-benzoquinone induced writhing in mice is utilized to detect and quantify the analgetic activity of compositions containing nalbuphine and 4,5-bis(4-methoxyphenyl)-2-(trifluoromethylsulfonyl)-1H-imidazole.\nMice, intubated with various doses of nalbuphine hydrochloride, 4,5-bis(4-methoxyphenyl)-2-(trifluoromethylsulfonyl)-1H-imidazole, combined doses of nalbuphine hydrochloride and 4,5-bis(4-methoxyphenyl)-2-(trifluoromethylsulfonyl)-1H-imidazole, or vehicle, are injected intraperitoneally with a challenge dose of phenyl-p-benzoquinone 5 minutes prior to the designated observation period. The phenyl-p-benzoquinone is prepared as an 0.1 mg/ml solution in 5% by volume of ethanol in water; the writhing dose is 1.25 mg/kg injected in a volume of 0.25 ml/20 g. For scoring purposes a \"writhe\" is indicated by whole body stretching or contraction of the abdomen; mice are observed 10 minutes for the presence or absence of writhing beginning 5 minutes after receiving the phenyl-p-benzoquinone dose. Each mouse is used only once, then discarded. […] This dosage as described herein is referred to as the ED50. All ED50 values and their 95% confidence limits are determined numerically by the computer-assisted methods of Finney. [D. J. Finney, \"Probit Analysis,\" Third Edition, Cambridge University Press, Cambridge, England, 1971].",
  "data": [
    {"smiles": "COc1ccc(-c2nc(S(=O)(=O)C(F)(F)F)[nH]c2-c2ccc(OC)cc2)cc1", "note": "[CII, 4,5-bis(4-methoxyphenyl)-2-(trifluoromethylsulfonyl)-1H-imidazole]", "values": [
      {"measurement": "% MICE BLOCKED", "setting": "40 min, CII 0.063 mg/kg", "result": 10.0, "unit": "%"},
      {"measurement": "% MICE BLOCKED", "setting": "40 min, CII 0.125 mg/kg", "result": 46.7, "unit": "%"},
      {"measurement": "% MICE BLOCKED", "setting": "40 min, CII 0.250 mg/kg", "result": 73.3, "unit": "%"},
      {"measurement": "% MICE BLOCKED", "setting": "40 min, CII 0.500 mg/kg", "result": 93.3, "unit": "%"},
      {"measurement": "ED50 at 40 min, CII", "setting": "40 min post oral dosing, CII part of the ED50 dose, N = 30 mice/dose", "result": 0.161, "unit": "mg/kg"},
      {"measurement": "% MICE BLOCKED", "setting": "80 min, CII 0.03 mg/kg", "result": 13.3, "unit": "%"},
      {"measurement": "% MICE BLOCKED", "setting": "80 min, CII 0.06 mg/kg", "result": 26.7, "unit": "%"},
      {"measurement": "% MICE BLOCKED", "setting": "80 min, CII 0.12 mg/kg", "result": 56.7, "unit": "%"},
      {"measurement": "% MICE BLOCKED", "setting": "80 min, CII 0.24 mg/kg", "result": 63.3, "unit": "%"},
      {"measurement": "ED50 at 80 min, CII", "setting": "80 min post oral dosing, CII part of the ED50 dose, N = 30 mice/dose", "result": 0.135, "unit": "mg/kg"}
    ]},
    {"smiles": "Oc1ccc2c3c1O[C@H]1[C@@H](O)CC[C@@]4(O)[C@@H](C2)N(CC2CCC2)CC[C@]314", "note": "[Nalbuphine, (-)-17-(cyclobutylmethyl)-4,5α-epoxymorphinan-3,6α,14-triol]", "values": [
      {"measurement": "% MICE BLOCKED", "setting": "40 min, nalbuphine HCl 5.85 mg/kg", "result": 16.7, "unit": "%"},
      {"measurement": "% MICE BLOCKED", "setting": "40 min, nalbuphine HCl 11.7 mg/kg", "result": 30.0, "unit": "%"},
      {"measurement": "% MICE BLOCKED", "setting": "40 min, nalbuphine HCl 23.4 mg/kg", "result": 43.3, "unit": "%"},
      {"measurement": "% MICE BLOCKED", "setting": "40 min, nalbuphine HCl 46.8 mg/kg", "result": 70.0, "unit": "%"},
      {"measurement": "% MICE BLOCKED", "setting": "40 min, nalbuphine HCl 93.6 mg/kg", "result": 83.3, "unit": "%"},
      {"measurement": "ED50 at 40 min, nalbuphine HCl", "setting": "40 min post oral dosing, nalbuphine HCl part of the ED50 dose, N = 30 mice/dose", "result": 28.9, "unit": "mg/kg"},
      {"measurement": "% MICE BLOCKED", "setting": "80 min, nalbuphine HCl 24.5 mg/kg", "result": 6.7, "unit": "%"},
      {"measurement": "% MICE BLOCKED", "setting": "80 min, nalbuphine HCl 49 mg/kg", "result": 26.7, "unit": "%"},
      {"measurement": "% MICE BLOCKED", "setting": "80 min, nalbuphine HCl 98 mg/kg", "result": 40.0, "unit": "%"},
      {"measurement": "% MICE BLOCKED", "setting": "80 min, nalbuphine HCl 196 mg/kg", "result": 56.7, "unit": "%"},
      {"measurement": "% MICE BLOCKED", "setting": "80 min, nalbuphine HCl 392 mg/kg", "result": 83.3, "unit": "%"},
      {"measurement": "ED50 at 80 min, nalbuphine HCl", "setting": "80 min post oral dosing, nalbuphine HCl part of the ED50 dose, N = 30 mice/dose", "result": 141, "unit": "mg/kg"}
    ]}
  ]
}
